The source of these data is patent US20180000085A1, “USE OF PICOLINAMIDE COMPOUNDS WITH FUNGICIDAL ACTIVITY” (DOW AGROSCIENCES LLC, priority 2014, published 2018).

Test [1] relates to Zymoseptoria tritici. The test can be described thus: Leaf blotch of wheat (SEPTTR) disease control on wheat seedlings. The test is classed as in vivo. Also on record: key to SEPTTR 1DP, HV activity at 100 ppm (% control rating) / SEPTTR 3DC, HV activity at 100 ppm (% control rating) / SEPTTR disease control, 1DP / SEPTTR disease control, 3DC / SEPTTR 1DP disease control rating, HV activity / SEPTTR 3DC disease control rating, HV activity / SEPTTR 3DC, LV activity at 125.1 g/H (% Control rating) / SEPTTR 1DP, LV activity at 125.1 g/H (% Control rating) / SEPTTR 1DP disease control rating, LV activity at 125.1 g/H / SEPTTR 3DC disease control rating, LV activity at 125.1 g/H / SEPTTR 3DC disease control rating, HV activity at 100 ppm / SEPTTR 1DP disease control rating, HV activity at 100 ppm / HV activity at 100 ppm SEPTTR 3DC (disease control rating) / HV activity at 100 ppm SEPTTR 1DP (disease control rating) / LV activity at 125.1 g/H SEPTTR 1DP (disease control rating) / LV activity at 125.1 g/H SEPTTR 3DC (disease control rating): A: > 80; B: ≤ 80; C: Not Tested; D: No Activity Observed in the Reported Assay. As to conditions: for SEPTTR 1DP disease control rating, HV activity / SEPTTR 3DC disease control rating, HV activity: HV application at 100 ppm, wheat leaf blotch.

Test [2] concerns Puccinia triticina. The test can be described thus: Wheat brown rust (PUCCRT) disease control on wheat seedlings. The class given is in vivo. Also on record: key to PUCCRT 3DC, HV activity at 100 ppm (% control rating) / PUCCRT disease control, 3DC / PUCCRT 1DP disease control rating, HV activity / PUCCRT 3DC disease control rating, HV activity / PUCCRT 3DC, LV activity at 125.1 g/H (% Control rating) / PUCCRT 1DP, LV activity at 125.1 g/H (% Control rating) / PUCCRT 3DC disease control rating, LV activity at 125.1 g/H / PUCCRT 1DP disease control rating, LV activity at 125.1 g/H / PUCCRT 3DC disease control rating, HV activity at 100 ppm / PUCCRT 1DP disease control rating, HV activity at 100 ppm / HV activity at 100 ppm PUCCRT 3DC (disease control rating) / LV activity at 125.1 g/H PUCCRT 1DP (disease control rating) / LV activity at 125.1 g/H PUCCRT 3DC (disease control rating): A: > 80; B: ≤ 80; C: Not Tested; D: No Activity Observed in the Reported Assay. Conditions: for PUCCRT 1DP disease control rating, HV activity / PUCCRT 3DC disease control rating, HV activity: HV application at 100 ppm, wheat brown rust.

Where [3] appears, read: high volume application, 100 ppm, 1 day protectant.
Setting [4] is: high volume application, 100 ppm, 3 day curative.
[5] abbreviates: low volume application, 125.1 g/H, 1 Day Protectant.
Setting [6] is: low volume application, 125.1 g/H, 3 Day Curative.
[7] abbreviates: low volume application, 125.1 g/H, 1 day protectant.
Setting [8] is: low volume application, 125.1 g/H, 3 day curative.
The mark [9] stands for this setting: HV activity at 100 ppm, 1 Day Protectant, wheat.
Where [10] appears, read: HV activity at 100 ppm, 3 Day Curative, wheat.
Setting [11] is: high volume application, 100 ppm, 1DP.
The mark [12] stands for this setting: high volume application, 100 ppm, 3DC.

As to `COc1ccnc(C(=O)N[C@@H](C)C(=O)O[C@@H](C)[C@H](Oc2cccc(F)c2)c2cccc(-c3ccccc3)c2)c1O` [Cmpd 814], the “SEPTTR 1DP disease control rating, HV activity at 100 ppm” value in test [1] (setting [3]) is “D”. The “SEPTTR 3DC disease control rating, HV activity at 100 ppm” value in test [1] (setting [4]) is “D”. In addition, the “PUCCRT 1DP disease control rating, HV activity at 100 ppm” value in test [2] (setting [3]) is reported as “B (≤ 80)”. The “PUCCRT 3DC disease control rating, HV activity at 100 ppm” value in test [2] (setting [4]) is “D”.

Turning to `CCC(Cc1ccccc1)C(OCC(C)C)C(C)OC(=O)CNC(=O)c1nccc(OC)c1OCOC(C)=O` (stereo not drawn) [Cmpd 445], in test [1] (1 Day Protectant), the “SEPTTR 1DP disease control rating, HV activity” value is listed as “B (≤ 80)”. In addition, the “SEPTTR 3DC disease control rating, HV activity” value in test [1] (3 Day Curative) is listed as “D”. Further, the “PUCCRT 1DP disease control rating, HV activity” value in test [2] (1 Day Protectant) is given as “A (> 80)”. In addition, in test [2] (3 Day Curative), the “PUCCRT 3DC disease control rating, HV activity” value was “A (> 80)”.

In the case of `COc1ccnc(C(=O)N[C@@H](C)C(=O)O[C@@H](C)[C@@H](COc2ccccc2)Oc2ccccc2)c1OC(C)=O` [Cmpd 488], the “SEPTTR 1DP, LV activity at 125.1 g/H (% Control rating)” value in test [1] (setting [5]) was “A (> 80)”. Further, the “SEPTTR 3DC, LV activity at 125.1 g/H (% Control rating)” value in test [1] (setting [6]) is listed as “B (≤ 80)”. Moreover, the “PUCCRT 1DP, LV activity at 125.1 g/H (% Control rating)” value in test [2] (setting [5]) is “A (> 80)”. Besides, in test [2] (setting [6]), the “PUCCRT 3DC, LV activity at 125.1 g/H (% Control rating)” value is reported as “A (> 80)”.

Turning to `CCC(CC)[C@@H](Oc1cccc(-c2ccccc2)c1)[C@H](C)OC(=O)[C@@H](NC(=O)c1nccc(OC)c1OC(C)=O)C(C)C` [Cmpd 664], the “SEPTTR 1DP disease control rating, LV activity at 125.1 g/H” value in test [1] (setting [7]) is “D”. The “SEPTTR 3DC disease control rating, LV activity at 125.1 g/H” value in test [1] (setting [8]) is recorded as “D”. Further, the “PUCCRT 1DP disease control rating, LV activity at 125.1 g/H” value in test [2] (setting [7]) is “A (> 80)”. Besides, the “PUCCRT 3DC disease control rating, LV activity at 125.1 g/H” value in test [2] (setting [8]) is recorded as “D”.

Regarding `COc1ccnc(C(=O)N[C@H](C(=O)O[C@@H](C)[C@H](Oc2cccc(Cl)c2)C(C)C)C(C)C)c1OCOC(C)=O` [Cmpd 564], the “SEPTTR 1DP, LV activity at 125.1 g/H (% Control rating)” value in test [1] (setting [5]) is on record as “A (> 80)”. Also, in test [1] (setting [6]), the “SEPTTR 3DC, LV activity at 125.1 g/H (% Control rating)” value is “A (> 80)”. Also, the “PUCCRT 1DP, LV activity at 125.1 g/H (% Control rating)” value in test [2] (setting [5]) was “A (> 80)”. In addition, the “PUCCRT 3DC, LV activity at 125.1 g/H (% Control rating)” value in test [2] (setting [6]) was “A (> 80)”.

For `CCC(CC)[C@@H](Oc1ccccc1Cl)[C@H](C)OC(=O)[C@@H](NC(=O)c1nccc(OC)c1OCOC(C)=O)C(C)C` [Cmpd 652], the “SEPTTR 1DP, LV activity at 125.1 g/H (% Control rating)” value in test [1] (setting [5]) is on record as “B (≤ 80)”. Also, the “SEPTTR 3DC, LV activity at 125.1 g/H (% Control rating)” value in test [1] (setting [6]) was “B (≤ 80)”. Also, the “PUCCRT 1DP, LV activity at 125.1 g/H (% Control rating)” value in test [2] (setting [5]) was “A (> 80)”. Besides, the “PUCCRT 3DC, LV activity at 125.1 g/H (% Control rating)” value in test [2] (setting [6]) is given as “B (≤ 80)”.

In the case of `CCCOC(CC)C(Oc1ccccc1)C(C)OC(=O)C(C)NC(=O)c1nccc(OC)c1O` (stereo not drawn) [Cmpd 289], in test [1] (setting [9]), the “SEPTTR disease control, 1DP” value is on record as “B (≤ 80)”. Besides, in test [1] (setting [10]), the “SEPTTR disease control, 3DC” value was “A (> 80)”. Further, the “SEPTTR 1DP disease control rating, HV activity” value in test [1] (1 Day Protectant) is recorded as “B (≤ 80)”. The “SEPTTR 3DC disease control rating, HV activity” value in test [1] (3 Day Curative) is recorded as “A (> 80)”. For the same molecule, the “SEPTTR 1DP, HV activity at 100 ppm (% control rating)” value in test [1] (setting [11]) is given as “B (≤ 80)”. Besides, in test [1] (setting [12]), the “SEPTTR 3DC, HV activity at 100 ppm (% control rating)” value is given as “A (> 80)”. In test [2] (setting [9]), the “PUCCRT disease control, 1DP” value was “A (> 80)”. Besides, in test [2] (setting [10]), the “PUCCRT disease control, 3DC” value is “A (> 80)”. The “PUCCRT 1DP disease control rating, HV activity” value in test [2] (1 Day Protectant) is recorded as “A (> 80)”. Moreover, the “PUCCRT 3DC disease control rating, HV activity” value in test [2] (3 Day Curative) is “A (> 80)”. In addition, the “PUCCRT 1DP, HV activity at 100 ppm (% control rating)” value in test [2] (setting [11]) is given as “A (> 80)”. Also, in test [2] (setting [12]), the “PUCCRT 3DC, HV activity at 100 ppm (% control rating)” value is listed as “A (> 80)”.

As to `COc1ccnc(C(=O)NC(C)C(=O)OC(C)COC2CCCC2)c1OCOC(C)=O` (stereo not drawn) [Cmpd 534], the “SEPTTR 1DP, LV activity at 125.1 g/H (% Control rating)” value in test [1] (setting [5]) is “D”. The “SEPTTR 3DC, LV activity at 125.1 g/H (% Control rating)” value in test [1] (setting [6]) is on record as “A (> 80)”. Besides, in test [2] (setting [5]), the “PUCCRT 1DP, LV activity at 125.1 g/H (% Control rating)” value is listed as “D”. Also, in test [2] (setting [6]), the “PUCCRT 3DC, LV activity at 125.1 g/H (% Control rating)” value is on record as “A (> 80)”.

Regarding `COc1ccnc(C(=O)NC(C)C(=O)OC(C)C(Oc2ccccc2)c2nccs2)c1O` (mixture of isomers) [Cmpd 808], in test [1] (setting [3]), the “SEPTTR 1DP disease control rating, HV activity at 100 ppm” value was “B (≤ 80)”. Further, in test [1] (setting [4]), the “SEPTTR 3DC disease control rating, HV activity at 100 ppm” value is given as “D”. Further, in test [2] (setting [3]), the “PUCCRT 1DP disease control rating, HV activity at 100 ppm” value is on record as “A (> 80)”. In addition, the “PUCCRT 3DC disease control rating, HV activity at 100 ppm” value in test [2] (setting [4]) is recorded as “B (≤ 80)”.

Consider `COc1ccnc(C(=O)N[C@@H](C)C(=O)O[C@@H](C)[C@H](OCC2CC2)C2CCCCC2)c1O` [Cmpd 816], for which the “SEPTTR 1DP disease control rating, HV activity at 100 ppm” value in test [1] (setting [3]) was “B (≤ 80)”. Besides, the “SEPTTR 3DC disease control rating, HV activity at 100 ppm” value in test [1] (setting [4]) was “B (≤ 80)”. In addition, in test [2] (setting [3]), the “PUCCRT 1DP disease control rating, HV activity at 100 ppm” value is “A (> 80)”. Besides, the “PUCCRT 3DC disease control rating, HV activity at 100 ppm” value in test [2] (setting [4]) is “B (≤ 80)”.
